Assay results: ChEMBL document CHEMBL1134362, “New 3'-azido-3'-deoxythymidin-5'-yl O-(omega-hydroxyalkyl) carbonate prodrugs: synthesis and anti-HIV evaluation” (J Med Chem, 2001)

Key:
[1] = Partition coefficient (logP); assay type: physicochemical; details: octanol/water
MT4 = assay: Cytotoxicity against MT-4 (human leukemia) cells.; assay type: functional
[2] = tested on: Human immunodeficiency virus 1; assay: Inhibition of HIV-1 (BRU) cytopathicity in MT-4 (human leukemia).; assay type: functional, organism-based
Homo sapiens = species on record: Homo sapiens; assay: Time required for 50%hydrolysis of prodrug to AZT in normal human serum was determined; assay type: ADME, organism-based
[3] = Selectivity index (CC50/EC50).; assay type: functional
[4] = tested on: Human immunodeficiency virus 1; assay: Inhibition of HIV-1 (BaL) cytopathicity in human peripheral blood mononuclear cells.; assay type: functional, organism-based
[5] = (§1) Cytotoxicity against human peripheral blood mononuclear cells.; assay type: functional
[6] = as §1; assay type: functional; remark: listed apart in the source
[7] = tested on: Human immunodeficiency virus 1; assay: Inhibition of HIV-1 (IIIB) cytopathicity in human peripheral blood mononuclear cells.; assay type: functional, organism-based

Row | SMILES | logP ([1]; read-out: logP) | CC50 (MT4) [nM] | EC50 [2] [nM] | T1/2 (Homo sapiens) [min] | SI [3] | logP [1] | EC50 [4] [nM] | CC50 [5] [nM] | CC50 [6] [nM] | EC50 [7] [nM]
1 | Cc1cn(C2CC(N=[N+]=[N-])C(COC(=O)OCCCCCO)O2)c(=O)[nH]c1=O (stereo not given) | -0.45 | > 50000 | 10 | 16 | > 5000 | – | – | – | – | –
2 | Cc1cn(C2CC(N=[N+]=[N-])C(COC(=O)OCCCO)O2)c(=O)[nH]c1=O (stereo not given) | – | > 50000 | 10 | 10 | > 5000 | -0.98 | – | – | – | –
3 | Cc1cn(C2CC(N=[N+]=[N-])C(COC(=O)CCCN)O2)c(=O)[nH]c1=O (stereo not given) | -0.9 | > 50000 | 20 | 26 | > 2500 | – | – | – | – | –
4 | Cc1cn(C2CC(N=[N+]=[N-])C(COC(=O)CCCC(=O)OC(C)(C)C)O2)c(=O)[nH]c1=O (stereo not given) | 1.17 | > 50000 | 5 | 33 | > 10000 | – | – | – | – | –
5 | Cc1cn(C2CC(N=[N+]=[N-])C(COC(=O)OCCCC(=O)OC(C)(C)C)O2)c(=O)[nH]c1=O (stereo not given) | 1.14 | > 50000 | 5 | 16 | > 10000 | – | – | – | – | –
6 | Cc1cn(C2CC(N=[N+]=[N-])C(COC(=O)OCCCCCCCCO)O2)c(=O)[nH]c1=O (stereo not given) | 1.14 | > 50000 | 2.5 | 2 | > 20000 | – | – | – | – | –
7 | Cc1cn(C2CC(N=[N+]=[N-])C(COC(=O)NCCCN)O2)c(=O)[nH]c1=O (stereo not given) | -1.19 | > 50000 | 10 | > 2880 | > 5000 | – | – | – | – | –
8 | CCCCOC(=O)OCC1OC(n2cc(C)c(=O)[nH]c2=O)CC1N=[N+]=[N-] (stereo not given) | 1.02 | > 50000 | 8 | 9 | > 6250 | – | – | – | – | –
9 | Cc1cn(C2CC(N=[N+]=[N-])C(COC(=O)OCCCC(=O)O)O2)c(=O)[nH]c1=O (stereo not given) | -0.55 | > 50000 | 5 | 780 | > 10000 | – | – | – | – | –
10 | Cc1cn(C2CC(N=[N+]=[N-])C(COC(=O)NCCCC(=O)OC(C)(C)C)O2)c(=O)[nH]c1=O (stereo not given) | 0.88 | > 50000 | 10 | > 2880 | > 5000 | – | – | – | – | –
11 | Cc1cn(C2CC(N=[N+]=[N-])C(COC(=O)NCCCC(=O)O)O2)c(=O)[nH]c1=O (stereo not given) | -0.81 | > 50000 | 100 | > 2880 | > 500 | – | – | – | – | –
12 | Cc1cn(C2CC(N=[N+]=[N-])C(COC(=O)CCCO)O2)c(=O)[nH]c1=O (stereo not given) | -0.95 | – | – | – | – | – | – | – | – | –
13 | Cc1cn(C2CC(N=[N+]=[N-])C(COC(=O)OCCCN)O2)c(=O)[nH]c1=O (stereo not given) | -0.93 | > 50000 | 20 | 8 | > 2500 | – | – | – | – | –
14 | Cc1cn(C2CC(N=[N+]=[N-])C(COC(=O)CCCC(=O)O)O2)c(=O)[nH]c1=O (stereo not given) | – | > 50000 | 7 | 1800 | > 7140 | -0.52 | – | – | – | –
15 | Cc1cn(C2CC(N=[N+]=[N-])C(COC(=O)OCCCCO)O2)c(=O)[nH]c1=O (stereo not given) | – | > 50000 | 0.5 | 30 | – | -0.68 | 0.78 | 24000 | 29000 | 0.78
16 | Cc1cn(C2CC(N=[N+]=[N-])C(COC(=O)OCCO)O2)c(=O)[nH]c1=O (stereo not given) | – | > 50000 | 10 | < 1 | > 5000 | -1.2 | – | – | – | –
17 | Cc1cn(C2CC(N=[N+]=[N-])C(COC(=O)NCCCO)O2)c(=O)[nH]c1=O (stereo not given) | -1.24 | > 50000 | 100 | > 2880 | > 500 | – | – | – | – | –
18 | Cc1cn([C@H]2C[C@H](N=[N+]=[N-])[C@@H](CO)O2)c(=O)[nH]c1=O [ZIDOVUDINE] | – | > 100000 | 25 | – | – | – | 11 | 11000 | 8000 | 7.5
19 | Cc1cn(C2CC(N=[N+]=[N-])C(COC(=O)OCCCCCCO)O2)c(=O)[nH]c1=O (stereo not given) | 0.08 | > 50000 | 10 | 7 | > 5000 | – | – | – | – | –
